Laboratory results from patent US20220402914A1, “Tryptoline-Based Benzothiazoles and their use as Antibiotics and Antibiotic Resistance-Modifying Agents” (The Regents of the University of Colorado, a body corporate, priority 2019, published 2022).
In brackets after ≈: the same amount, converted by molar mass. Counter-ions that a name gives are not always drawn. Like-named read-outs stand apart in the source and are kept apart here.

Key:
[1] = test system: MRSA ATCC BAA-44; assay: Minimal inhibitory concentration (MIC), standard broth microdilution; format: cell-based, Staphylococcus aureus; conditions: for MIC: MRSA BAA-44 strain
Description: (§1) RMA activity of the analogues was tested by assessing their abilities to sensitize MRSA to the antibiotic cefazolin (a first-generation cephalosporin). The well characterized strain MRSA ATCC BAA-44 was tested as previously described. […] The minimal inhibitory concentration (MIC), or the lowest concentration at which S. aureus is considered susceptible to an antibacterial, was determined by the standard broth microdilution method detailed in the CLSI handbook. RMA activity was compared by the ratio of MIC/MRC. The half growth inhibitory concentration (GI50) of each analogue against HeLa cells was determined as previously described. […] The luminescence of each sample was recorded in an Envision Multilabel Plate Reader (Perkin Elmer). Results of MICs and MRCs were confirmed by testing in triplicate. The GI50 assay was performed in duplicate.

[2] = test system: MRSA ATCC BAA-44; assay: Minimum re-sensitizing concentration (MRC) in the presence of cefazolin; format: cell-based, Staphylococcus aureus; conditions: MRSA BAA-44, cefazolin
Description: as §1

[3] = test system: HeLa cells; assay: GI50 against HeLa cells, Cell Titer Glo viability assay; format: cell-based, human; conditions: for GI50: 24 h
Description: as §1

[4] = test system: MSSA; assay: MIC, scope of antibacterial activity; format: cell-based, S. aureus; conditions: Staphylococcus aureus
Description: as §1
(§2) Furthermore, we explored the scope of the antibacterial activity of 12g in a panel of MRSA and MSSA strains including BAA-44 (MIC=1 μg/mL), MRSA-252 (MIC=2 μg/mL), B. subtilis NR-607 (MIC=2 μg/mL), E. faecium HM-460 (MIC=4 μg/mL), E. faecium 28977 (MIC=2 μg/mL) and MSSA (MIC=0.5 μg/mL).

[5] = test system: MRSA-252; assay: MIC, scope of antibacterial activity; format: cell-based, S. aureus; conditions: Staphylococcus aureus
Description: as §1, §2

[6] = test system: E. faecium 28977; assay: MIC, scope of antibacterial activity; format: cell-based; conditions: Enterococcus faecium
Description: as §1, §2

[7] = test system: B. subtilis NR-607; assay: MIC, scope of antibacterial activity; format: cell-based; conditions: Bacillus subtilis, NR607
Description: as §1, §2

[8] = test system: E. faecium HM-460; assay: MIC, scope of antibacterial activity; format: cell-based; conditions: Enterococcus faecium, HM460
Description: as §1, §2

[9] = GI50 against HeLa cells, Cell Titer Glo viability assay; format: cell-based, human; conditions: human, HeLa cells, 24 h
Description: as §1

[10] = test system: multiple MRSA strains; assay: RMA activity in multiple MRSA strains with cephalosporins; format: cell-based, S. aureus
Description: as §1
We next explored the scope of RMA activity of 4ad in different MRSA strains, including MRSA BAA-1683, MRSA BAA-1764, MRSA NR-46411, NRS-384 and NRS-100. These strains were selected because of their diverse geographical origins, genetic background, and resistance profile. We also tested RMA activity in combination with another commercial antibiotic, cefuroxime, which is a second-generation cephalosporin. MRCs in the presence of cefuroxime were determined using the same method as those for cefazolin.

[11] = Staphylococcus aureus, read-out: MIC

In the case of `COC(=O)C1CN(c2nc3ccc(Cl)cc3s2)Cc2[nH]c3ccc(Cl)cc3c21` (racemic) [Compound 4n, Methyl 6-chloro-2-(6-chlorobenzo[d]thiazol-2-yl)-2,3,4,9-tetrahydro-1H-pyrido[3,4-b]indole-4-carboxylate], the MIC [1, 11] is reported as over 32 µg/mL, the “RMA activity (in words)” value [2] is reported as “without compromising the RMA activity” and the “RMA activity (ratio of MIC/MRC)” value [2] is reported as 32 fold. For the same molecule, the GI50 [3] was 6.6 µg/mL (≈ 15.3 µM).
For `O=C(O)C1CN(c2nc3ccc(Cl)cc3s2)Cc2[nH]c3ccc(Cl)cc3c21` (racemic) [Compound 8, 6-Chloro-2-(6-chlorobenzo[d]thiazol-2-yl)-2,3,4,9-tetrahydro-1H-pyrido[3,4-b]indole-4-carboxylic acid], the MIC [1, 11] was 32 µg/mL (≈ 76.5 µM), the “RMA activity (in words)” value [2] was “significantly decreased or abolished the RMA activity” and the GI50 [3] was 65 µg/mL (≈ 155 µM).
In the case of `N=C(N)NCC1CN(c2nc3ccc(Cl)cc3s2)Cc2[nH]c3ccc(Cl)cc3c21` (racemic) [Compound 12g, 1-((6-chloro-2-(6-chlorobenzo[d]thiazol-2-yl)-2,3,4,9-tetrahydro-1H-pyrido[3,4-b]indol-4-yl)methyl)guanidine hydrochloride], the MIC [4] is reported as 0.5 µg/mL, the MIC [5] is reported as 2 µg/mL and the MIC ([1]; hydrochloride) is reported as 1 µg/mL. It also gave an MIC ([1]; Staphylococcus aureus) of 2 µg/mL, an MIC [6] of 2 µg/mL and an MIC [7] of 2 µg/mL. For the same molecule, the MIC [8] was 4 µg/mL and the GI50 at 24 h [9] was 14.1 µg/mL.
For `Clc1ccc2nc(N3CCc4c([nH]c5ccc(Cl)cc45)C3)sc2c1` [Compound 4a, 6-Chloro-2-(6-chloro-1,3-benzothiazol-2-yl)-2,3,4,9-tetrahydro-1H-pyrido[3,4-b]indole], the MIC [1, 11] was over 64 µg/mL, the “RMA activity (ratio of MIC/MRC)” value [2] was 32 fold and the GI50 [3] was 13.2 µg/mL (≈ 35.3 µM).
With `Nc1cc(Cl)c2nc(N3CCc4c([nH]c5ccc(Cl)cc45)C3)sc2c1` [Compound 4ad, 4-Chloro-2-(6-chloro-1,3,4,9-tetrahydro-2H-pyrido[3,4-b]indol-2-yl)-1,3-benzothiazol-6-amine] the MIC [1] was over 32 µg/mL, the “RMA activity (in words)” value [2] was “good RMA activities” and the GI50 [3] was over 100 µg/mL. The “potentiation of antibiotics (in words)” value ([10]; five MRSA strains, cefazolin and cefuroxime) was “potentiates both antibiotic cefazolin and cefuroxime” and the “concentration that re-sensitizes multiple MRSA strains to cephalosporins” value ([10]; multiple MRSA strains, cephalosporins) was 2 µg/mL.
With `FC(F)(F)c1cccc2sc(N3CCc4c([nH]c5ccc(Cl)cc45)C3)nc12` [Compound 4af, 6-Chloro-2-[4-(trifluoromethyl)-1,3-benzothiazol-2-yl]-2,3,4,9-tetrahydro-1H-pyrido[3,4-b]indole] the MIC [1, 11] was over 32 µg/mL, the “RMA activity (in words)” value [2] was “good RMA activities” and the “worse GI50 relative to 4w” value [3] was 3 fold. The GI50 [3] was 8 µg/mL (≈ 19.6 µM).
With `CNc1cc(C(F)(F)F)c2nc(N3CCc4c([nH]c5ccc(Cl)cc45)C3)sc2c1` [Compound 4ai, 2-(6-Chloro-1,3,4,9-tetrahydro-2H-pyrido[3,4-b]indol-2-yl)-N-methyl-4-(trifluoromethyl)-1,3-benzothiazol-6-amine] the MIC [1, 11] was over 32 µg/mL, the “RMA activity (in words)” value [2] was “good RMA activities” and the GI50 [3] was 15.4 µg/mL (≈ 35.2 µM).
With `COC(=O)C1Cc2c([nH]c3ccc(Cl)cc23)CN1c1nc2ccc(Cl)cc2s1` (stereo not shown) [Compound 4m, Methyl 6-chloro-2-(6-chloro-1,3-benzothiazol-2-yl)-2,3,4,9-tetrahydro-1H-pyrido[3,4-b]indole-3-carboxylate] the MIC [1, 11] was over 64 µg/mL and the “RMA activity (in words)” value [2] was “abolished”.
For `Clc1ccc2[nH]c3c(c2c1)CCN(c1nc2ccc(Br)cc2s1)C3` [Compound 4p, 2-(6-Bromo-1,3-benzothiazol-2-yl)-6-chloro-2,3,4,9-tetrahydro-1H-pyrido[3,4-b]indole], the MIC [1, 11] was over 64 µg/mL, the “RMA activity (in words)” value [2] was “retained the RMA activity” and the GI50 [3] was 5.1 µg/mL (≈ 12.2 µM).
With `FC(F)(F)c1ccc2nc(N3CCc4c([nH]c5ccc(Cl)cc45)C3)sc2c1` [Compound 4s, 6-Chloro-2-[6-(trifluoromethyl)-1,3-benzothiazol-2-yl]-2,3,4,9-tetrahydro-1H-pyrido[3,4-b]indole] the MIC [1, 11] was over 64 µg/mL, the “increase of RMA activity relative to 4a” value [2] was 4 fold and the GI50 [3] was 4.6 µg/mL (≈ 11.3 µM).
In the case of `FC(F)(F)Oc1ccc2nc(N3CCc4c([nH]c5ccc(Cl)cc45)C3)sc2c1` [Compound 4t, 6-Chloro-2-[6-(trifluoromethoxy)-1,3-benzothiazol-2-yl]-2,3,4,9-tetrahydro-1H-pyrido[3,4-b]indole], the MIC [1] is reported as 1 µg/mL (≈ 2.36 µM), the “RMA activity (in words)” value [2] is reported as “lost the RMA activity completely” and the GI50 [3] is reported as 7.3 µg/mL (≈ 17.2 µM).
With `Clc1ccc2[nH]c3c(c2c1)CCN(c1nc2cccc(Cl)c2s1)C3` [Compound 4u, 6-Chloro-2-(7-chloro-1,3-benzothiazol-2-yl)-2,3,4,9-tetrahydro-1H-pyrido[3,4-b]indole] the “MIC (in words)” value ([1]; MRSA BAA-44) was “increased MIC”, the MIC [1, 11] was 4 µg/mL (≈ 10.7 µM) and the “RMA activity (in words)” value [2] was “reduced RMA activity”. The GI50 [3] was 6.7 µg/mL (≈ 17.9 µM).
With `Clc1ccc2sc(N3CCc4c([nH]c5ccc(Cl)cc45)C3)nc2c1` [Compound 4v, 6-Chloro-2-(5-chloro-1,3-benzothiazol-2-yl)-2,3,4,9-tetrahydro-1H-pyrido[3,4-b]indole] the “RMA activity (in words)” value [2] was “no RMA activity”.
With `Clc1ccc2[nH]c3c(c2c1)CCN(c1nc2c(Cl)cccc2s1)C3` [Compound 4w, 6-Chloro-2-(4-chloro-1,3-benzothiazol-2-yl)-2,3,4,9-tetrahydro-1H-pyrido[3,4-b]indole] the MIC [1, 11] was over 64 µg/mL, the “RMA activity (in words)” value [2] was “maintained similar RMA activity” and the GI50 [3] was 27.7 µg/mL (≈ 74 µM).
